Experimental findings from ChEMBL document CHEMBL1255208, “A class of novel conjugates of substituted purine and Gly-AA-OBzl: synthesis and evaluation of orally analgesic activity” (2010) are described below.

What all share (assay type): functional
For assay [1], the system named is Mus musculus. In words: Analgesic activity in mouse assessed as pain threshold variation at 25 umol/kg, po after 150 mins (RVb = 3.98 +/- 4.03 %).
Assay [2] deals with Mus musculus. The assay can be described thus: Analgesic activity in mouse assessed as pain threshold variation at 25 umol/kg, po after 90 mins (RVb = 0.2 +/- 3.75 %).
Assay [3] concerns Mus musculus. In words: Analgesic activity in mouse assessed as pain threshold variation at 25 umol/kg, po after 60 mins (RVb = -6.5 +/- 1.79 %).
The subject of assay [4] is Mus musculus. The assay can be described thus: Analgesic activity in mouse assessed as pain threshold variation at 25 umol/kg, po after 180 mins (RVb = -5.10 %).
Assay [5] concerns Mus musculus. In words: Analgesic activity in mouse assessed as pain threshold variation at 25 umol/kg, po after 30 mins (RVb = -1 +/- 2.8 %).
Assay [6] concerns Mus musculus. In words: Analgesic activity in mouse assessed as pain threshold variation at 25 umol/kg, po after 120 mins (RVb = 0.69 +/- 1.98 %).
In assay [7] the test system is Mus musculus. The assay can be described thus: Analgesic activity in mouse assessed as pain threshold variation at 30 umol/kg, po after 120 mins (RVb = 0.18 +/- 0.15 %).
Assay [8] deals with Mus musculus. The assay can be described thus: Analgesic activity in mouse assessed as pain threshold variation at 30 umol/kg, po after 180 mins (RVb = 0.15 +/- 0.12 %).
Assay [9] concerns Mus musculus. The assay can be described thus: Analgesic activity in mouse assessed as pain threshold variation at 30 umol/kg, po after 60 mins (RVb = 0.15 +/- 0.16 %).
In assay [10] the test system is Mus musculus. The assay can be described thus: Analgesic activity in mouse assessed as pain threshold variation at 30 umol/kg, po after 90 mins (RVb = 0.17 +/- 0.14 %).
Assay [11] concerns Mus musculus. In words: Analgesic activity in mouse assessed as pain threshold variation at 30 umol/kg, po after 150 mins (RVb = 0.16 +/- 0.13 %).
The subject of assay [12] is Mus musculus. The assay can be described thus: Analgesic activity in mouse assessed as pain threshold variation at 30 umol/kg, po after 30 mins (RVb = 0.13 +/- 0.14 %).

Molecules are shown by their SMILES. Where a SMILES comes first, the peptide text is derived from it. The star is where a group is joined. OBn = c1ccc(CO*)cc1

With `CSCC[C@H](NC(=O)CN(c1nc(Cl)nc2c1ncn2C1CCCCO1)C1CC1)C(=O)OCc1ccccc1` (some centres undefined), the Activity in the assay on Mus musculus [1] was determined as 17.47%; with Mus musculus [2], 42.7%; in the assay on Mus musculus [3] it was 40.97%; in the assay on Mus musculus [4] it was 12.89%; in the assay with Mus musculus [5], 30.04%; with Mus musculus [6], 28.66%.
In the case of `O=C(CN(c1nc(Cl)nc2c1ncn2C1CCCCO1)C1CC1)N[C@@H](CCC(=O)OCc1ccccc1)C(=O)OCc1ccccc1` (some centres undefined), the Activity with Mus musculus [1] was 14.14%; in the assay with Mus musculus [2] it was 25.2%; with Mus musculus [3], 34.74%; in the assay on Mus musculus [4], 10.93%; in the assay with Mus musculus [5], 32.61%; in the assay with Mus musculus [6] it was 20.71%.
Regarding `CC(C)(C)OC(=O)NCCCC[C@H](NC(=O)CN(c1nc(Cl)nc2c1ncn2C1CCCCO1)C1CC1)C(=O)OCc1ccccc1` (some centres undefined), the Activity with Mus musculus [1] is 17.2%; in the assay on Mus musculus [2], 32.85%; in the assay with Mus musculus [3], 32.66%; in the assay with Mus musculus [4], 10.06%; in the assay with Mus musculus [5] it was 18.33%; in the assay on Mus musculus [6] it was 28.39%.
Take `CC(C)C[C@H](NC(=O)CN(c1nc(Cl)nc2c1ncn2C1CCCCO1)C1CC1)C(=O)OCc1ccccc1` (some centres undefined): the Activity in the assay on Mus musculus [1] was determined as 6.47%; with Mus musculus [2], 28.22%; in the assay with Mus musculus [3] it was 34.19%; with Mus musculus [4] it was 0.04%; with Mus musculus [5] it was 26.2%; with Mus musculus [6] it was 12.79%.
Regarding `NCC(=O)O` [GLYCINE], the Activity worked out at 12.03% in the assay on Mus musculus [7]; 10.96% in the assay with Mus musculus [8]; 11.21% in the assay on Mus musculus [9]; 11.31% in the assay with Mus musculus [10]; 11.54% with Mus musculus [11]; 10.13% in the assay on Mus musculus [12].
Consider `O=C(OCc1ccccc1)[C@@H]1CCCN1C(=O)CN(c1nc(Cl)nc2c1ncn2C1CCCCO1)C1CC1` (some centres undefined), for which the Activity in the assay on Mus musculus [1] amounted to 7.85%; with Mus musculus [2], 23.31%; with Mus musculus [3] it was 36.73%; in the assay on Mus musculus [4], 6.63%; in the assay with Mus musculus [5] it was 32.25%; with Mus musculus [6], 17.49%.
Consider `C[C@@H](O)[C@H](NC(=O)CN(c1nc(Cl)nc2c1ncn2C1CCCCO1)C1CC1)C(=O)OCc1ccccc1` (some centres undefined), for which the Activity in the assay on Mus musculus [1] was determined as 6.53%; in the assay on Mus musculus [2], 23.38%; in the assay with Mus musculus [3], 28.36%; in the assay on Mus musculus [4] it was 2.34%; with Mus musculus [5], 23.61%; in the assay with Mus musculus [6], 10.91%.
Turning to `O=C(CN(c1nc(Cl)nc2c1ncn2C1CCCCO1)C1CC1)N[C@@H](Cc1ccc(O)cc1)C(=O)OCc1ccccc1` (some centres undefined), the Activity with Mus musculus [1] amounted to 8.71%; in the assay with Mus musculus [2] it was 36.45%; with Mus musculus [3] it was 35.82%; with Mus musculus [4] it was 12.02%; with Mus musculus [5], 20.53%; in the assay with Mus musculus [6] it was 17.44%.
For `Clc1nc(Cl)c2ncn(C3CCCCO3)c2n1` (centres undefined), the Activity in the assay with Mus musculus [7] is 14.13%; with Mus musculus [8], 8.03%; in the assay on Mus musculus [9] it was 23.99%; with Mus musculus [10], 15.01%; with Mus musculus [11] it was 9.89%; in the assay with Mus musculus [12] it was 14.3%.
For the molecule `CC[C@H](C)[C@H](NC(=O)CN(c1nc(Cl)nc2c1ncn2C1CCCCO1)C1CC1)C(=O)OCc1ccccc1` (some centres undefined), the Activity is 16.43% with Mus musculus [1]; 22.57% in the assay on Mus musculus [2]; 27.35% with Mus musculus [3]; 9.15% in the assay on Mus musculus [4]; 25.56% in the assay on Mus musculus [5]; 20.42% with Mus musculus [6].
On to `O=C(CN(c1nc(Cl)nc2c1ncn2C1CCCCO1)C1CC1)N[C@@H](CC(=O)OCc1ccccc1)C(=O)OCc1ccccc1` (some centres undefined), for which the Activity is reported as 0.06% in the assay on Mus musculus [1]; 25.07% with Mus musculus [2]; 38.15% with Mus musculus [3]; 0.03% with Mus musculus [4]; 31.81% in the assay with Mus musculus [5]; 7.82% in the assay on Mus musculus [6].
`Clc1nc(NC2CC2)c2ncn(C3CCCCO3)c2n1` (centres undefined): the Activity came out at 15.66% with Mus musculus [7]; 5.72% in the assay with Mus musculus [1]; 9.95% in the assay with Mus musculus [8]; 11.93% in the assay on Mus musculus [2]; 25.61% in the assay with Mus musculus [9]; 20.63% in the assay on Mus musculus [3]. Further, the Activity in the assay on Mus musculus [4] is reported as 5.92%; with Mus musculus [10], 16.96%; with Mus musculus [11], 10.78%; in the assay on Mus musculus [12], 15.2%; with Mus musculus [5] it was 10.27%; in the assay on Mus musculus [6] it was 12.64%.
Turning to `CCOC(=O)CN(c1nc(Cl)nc2c1ncn2C1CCCCO1)C1CC1` (centres undefined), the Activity with Mus musculus [1] is 11.85%; in the assay on Mus musculus [2], 13.04%; in the assay with Mus musculus [3] it was 22.64%; with Mus musculus [4], 5.33%; in the assay on Mus musculus [5], 9.92%; with Mus musculus [6], 14.91%.
Regarding `Clc1nc(Cl)c2nc[nH]c2n1`, the Activity with Mus musculus [7] was determined as 12.97%; in the assay on Mus musculus [8], 7.99%; in the assay on Mus musculus [9] it was 21.62%; in the assay on Mus musculus [10], 14.02%; in the assay with Mus musculus [11] it was 8.77%; with Mus musculus [12], 12.22%.
Turning to `CC(C)[C@H](NC(=O)CN(c1nc(Cl)nc2c1ncn2C1CCCCO1)C1CC1)C(=O)OCc1ccccc1` (some centres undefined), the Activity in the assay with Mus musculus [1] worked out at 21.08%; in the assay on Mus musculus [2], 30.14%; with Mus musculus [3], 34.85%; with Mus musculus [4], 5.65%; in the assay with Mus musculus [5], 21.83%; with Mus musculus [6], 25.79%.
`O=C(CN(c1nc(Cl)nc2c1ncn2C1CCCCO1)C1CC1)N[C@@H](CO)C(=O)OCc1ccccc1` (some centres undefined): the Activity in the assay with Mus musculus [1] was determined as 18.32%; with Mus musculus [2], 32.17%; in the assay with Mus musculus [3], 46.71%; in the assay with Mus musculus [4], 12.85%; in the assay with Mus musculus [5] it was 27.77%; in the assay with Mus musculus [6], 29.2%.
With `O=C(CN(c1nc(Cl)nc2c1ncn2C1CCCCO1)C1CC1)N[C@@H](Cc1cnc[nH]1)C(=O)OCc1ccccc1` (some centres undefined), the Activity in the assay with Mus musculus [1] stood at 5.31%; in the assay on Mus musculus [2], 14.45%; with Mus musculus [3], 36.43%; in the assay with Mus musculus [4] it was 4.38%; with Mus musculus [5], 24.98%; with Mus musculus [6] it was 10.16%.
Consider `O=C(CN(c1nc(Cl)nc2c1ncn2C1CCCCO1)C1CC1)N[C@@H](Cc1c[nH]c2ccccc12)C(=O)OCc1ccccc1` (some centres undefined), for which the Activity is 11.45% in the assay with Mus musculus [1]; 38.93% in the assay on Mus musculus [2]; 51.9% in the assay with Mus musculus [3]; 5.15% in the assay with Mus musculus [4]; 43.53% in the assay with Mus musculus [5]; 22.58% in the assay with Mus musculus [6].
On to `NC(=O)CC[C@H](NC(=O)CN(c1nc(Cl)nc2c1ncn2C1CCCCO1)C1CC1)C(=O)OCc1ccccc1` (some centres undefined), for which the Activity in the assay on Mus musculus [1] is listed as 10.72%; in the assay on Mus musculus [2], 37.82%; in the assay on Mus musculus [3] it was 39.4%; in the assay on Mus musculus [4], 7.71%; in the assay with Mus musculus [5], 46.96%; with Mus musculus [6] it was 22.34%.
Take `O=C(CN(c1nc(Cl)nc2c1ncn2C1CCCCO1)C1CC1)N[C@@H](Cc1ccccc1)C(=O)OCc1ccccc1` (some centres undefined): the Activity is 3.49% with Mus musculus [1]; 37.73% in the assay with Mus musculus [2]; 45.54% in the assay with Mus musculus [3]; 1.79% with Mus musculus [4]; 39.2% in the assay with Mus musculus [5]; 26.29% with Mus musculus [6].
Consider `NC(=O)C[C@H](NC(=O)CN(c1nc(Cl)nc2c1ncn2C1CCCCO1)C1CC1)C(=O)OCc1ccccc1` (some centres undefined), for which the Activity in the assay with Mus musculus [1] is 21.71%; in the assay on Mus musculus [2], 34.95%; with Mus musculus [3], 30.54%; in the assay on Mus musculus [4] it was 15.45%; in the assay on Mus musculus [5], 34.53%; with Mus musculus [6], 29.15%.
As to `O=C(O)CN(c1nc(Cl)nc2c1ncn2C1CCCCO1)C1CC1` (centres undefined), the Activity was determined as 3.12% with Mus musculus [1]; 8.22% in the assay on Mus musculus [2]; 15.24% in the assay with Mus musculus [3]; 3.41% in the assay on Mus musculus [4]; 5.21% with Mus musculus [5]; 7.68% in the assay with Mus musculus [6].
In the case of `C[C@H](NC(=O)CN)C(=O)OCc1ccccc1` (H-Gly-Ala-OBn), the Activity in the assay with Mus musculus [7] is 13.57%; in the assay with Mus musculus [8], 12.99%; with Mus musculus [9], 13.32%; in the assay with Mus musculus [10] it was 13.45%; in the assay on Mus musculus [11], 13%; in the assay on Mus musculus [12] it was 12.25%.
